Reference: PubChem BioAssay AID2060491 (Molecular Pharmacology Branch, DTP, NCI, 2025)
“And” between values parts separate entries of the source, which are not always exact repeats. Identical values can stand only once.

System: 857933-349-R-J2-PDC complex spheroids, viability
Experiment: Anticancer human tumor 857933-349-R-J2-PDC patient-derived colon adenocarcinoma cell line growth inhibition [GQUAD]
Conditions: for viability, T/C: stronger effect = lower value
Excerpt: DNA G-quadruplex Stabilizer Agents in Combinations in Complex Spheroids
A high-throughput screen of multi-cell type tumor spheroids was designed to identify active combinations of DNA G-quadruplex stabilizer agents and targeted small molecules. Complex spheroids include a stromal component modeled by human endothelial cells (HUVEC) and fibroblasts modeled by human mesenchymal stem cells (MSCs). The concentration ranges selected for each drug and investigational agent were based upon clinically achievable concentrations if the clinical Cmax of the agent was known.
Compounds. The drugs and investigational agents: pidnarulex (CX-5461; NSC782164), APTO-253 (NSC789042), BRACO-19 (NSC847499), peposertib (NSC802822), ceralasertib (NSC780249), elimusertib (NSC800525), camonsertib (NSC841442), AZD-1390 (NSC803789), olaparib (NSC753686), talazoparib (NSC767125), ART-558 (NSC835418), sotorasib (NSC818433), MRTX-1133 (NSC836407), SN-38 (NSC673596), topotecan (NSC609699), etoposide (NSC141540), doxorubicin (NSC123127), gemcitabine (NSC613327), 5-fluorouracil (NSC19893), paclitaxel (NSC125973), vemurafenib (NSC761431), panobinostat (NSC761190), R-306465 (JNJ-16241199; NSC773264), adavosertib (NSC754352), TP-3654 (NSC805149), carboplatin (NSC241240), KSQ-4279 (NSC840948), and staurosporine (NSC755774) were obtained from the National Cancer Institute (NCI) Developmental Therapeutics Program Chemical Repository (34). The FDA-approved anticancer drug set is available from the NCI Developmental Therapeutics Program. […] The stock solutions were prepared in dimethyl sulfoxide (DMSO, Sigma-Aldrich, St. Louis, MO, cat. D2650) at 800-fold the tested concentration and stored at -70 degrees C prior to their use. All drugs and investigational agents were tested over a range starting from a high concentration at or near the clinical Cmax and decreasing in half-log increments. If the clinical Cmax for an agent had not been determined, the highest concentration tested was 10 microM.
2.3 Cell Culture. All cells were maintained in an incubator at 37 degrees C and 5% CO2 with 95% humidity. The PDC lines were cultured according to standard operating procedures established by the NCI PDMR. All PDCs were thawed and cultured in Matrigel-coated flasks prepared with a working solution of 1X Ham's F-12 nutrient mix, without supplementation (Invitrogen, cat. 11765054), 100 U/mL penicillin-streptomycin (Invitrogen, cat. 15140122), and 2.5% Matrigel (Corning Inc., cat. 354248) for the first three passages. The 857933-349-R-J2-PDC line was cultured in 6C/Colon 1B media, which includes advanced DMEM/F-12 (Thermo Fisher Scientific, cat. 12634028), 10 mM HEPES (Thermo Fisher Scientific, cat. 15630080), 1X GlutaMAX supplement (Thermo Fisher Scientific, cat. 35050061), 0.1 mg/mL primocin (InvivoGen, cat. ant-pm-2), 10% defined fetal bovine serum, heat inactivated (HyClone Laboratories Inc., cat. SH30070.03HI), 50% L-WRN conditioned media (ATCC, cat. CRL-3276), 1.25 mM N-Acetyl-L-cysteine (Sigma-Aldrich, cat. A9165), 10 mM nicotinamide (Sigma-Aldrich, cat. N0636), 1X B-27 supplement (Thermo Fisher Scientific, cat. 17504044), 1X N-2 supplement (Thermo Fisher Scientific, cat. 17502048), 10 microM Y-27632 dihydrochloride (Tocris Bioscience, cat. 1254), and 50 ng/mL human EGF recombinant protein (Thermo Fisher Scientific, cat. PHG0311). The 485176-168-R4-J1-PDC line was cultured in Panc media, which includes all 6C/Colon 1B media components plus 100 ng/mL human FGF-10 (Thermo Fisher Scientific, cat. 100-26), 500 nM SB-431542 (Selleckchem, cat. S1067), and gastrin (Tocris, cat. 3006).
[…]

[1] = curve of first compound, second compound 0.0316 µM
[2] = curve of first compound, second compound 0.1 µM
[3] = curve of first compound, second compound 0.316 µM
[4] = curve of first compound, second compound 1 µM
[5] = curve of first compound, second compound 3.16 µM
[6] = curve of first compound, second compound 10 µM
[7] = second compound 0.0316 µM, first compound 0.0316 µM
[8] = second compound 0.0316 µM, first compound 0.1 µM
[9] = second compound 0.0316 µM, first compound 0.316 µM
[10] = second compound 0.0316 µM, first compound 1 µM
[11] = second compound 0.0316 µM, first compound 3.16 µM
[12] = second compound 0.0316 µM, first compound 10 µM
[13] = second compound 0.1 µM, first compound 0.0316 µM
[14] = second compound 0.1 µM, first compound 0.1 µM
[15] = second compound 0.1 µM, first compound 0.316 µM
[16] = second compound 0.1 µM, first compound 1 µM
[17] = second compound 0.1 µM, first compound 3.16 µM
[18] = second compound 0.1 µM, first compound 10 µM
[19] = second compound 0.316 µM, first compound 0.0316 µM
[20] = second compound 0.316 µM, first compound 0.1 µM
[21] = second compound 0.316 µM, first compound 0.316 µM
[22] = second compound 0.316 µM, first compound 1 µM
[23] = second compound 0.316 µM, first compound 3.16 µM
[24] = second compound 0.316 µM, first compound 10 µM
[25] = second compound 1 µM, first compound 0.0316 µM
[26] = second compound 1 µM, first compound 0.1 µM
[27] = second compound 1 µM, first compound 0.316 µM
[28] = second compound 1 µM, first compound 1 µM
[29] = second compound 1 µM, first compound 3.16 µM
[30] = second compound 1 µM, first compound 10 µM
[31] = second compound 3.16 µM, first compound 0.0316 µM
[32] = second compound 3.16 µM, first compound 0.1 µM
[33] = second compound 3.16 µM, first compound 0.316 µM
[34] = second compound 3.16 µM, first compound 1 µM
[35] = second compound 3.16 µM, first compound 3.16 µM
[36] = second compound 3.16 µM, first compound 10 µM
[37] = second compound 10 µM, first compound 0.0316 µM
[38] = second compound 10 µM, first compound 0.1 µM
[39] = second compound 10 µM, first compound 0.316 µM
[40] = second compound 10 µM, first compound 1 µM
[41] = second compound 10 µM, first compound 3.16 µM
[42] = second compound 10 µM, first compound 10 µM
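Further: spheroids exposed to compounds for one week before readout.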
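Wherever viability, T/C is given: percent viability relative to vehicle DMSO wells taken as 100%.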

Work on `O=c1[nH]cc(F)c(=O)[nH]1` + Cc1cnc(CNC(=O)c2c(=O)c3ccc(N4CCCN(C)CC4)nc3n3c2sc2ccccc23)cn1 yielded an IC50 [1] of 1500 nM, an IC50 [2] of 859 nM and an IC50 [3] of under 31.6 nM. It also gave an IC50 [4] of under 31.6 nM, an IC50 [5] of under 31.6 nM and an IC50 [6] of under 31.6 nM. The viability, T/C [7] was 95%, the viability, T/C [8] was 95.9% and the viability, T/C [9] was 87.3%. The viability, T/C [10] was 60.8%, the viability, T/C [11] was 30% and the viability, T/C [12] was 18.9%. For the same molecule, the viability, T/C [13] was 72.2%, the viability, T/C [14] was 84.7% and the viability, T/C [15] was 64.8%. It also gave a viability, T/C [16] of 47%, a viability, T/C [17] of 26.3% and a viability, T/C [18] of 13.6%. It also gave a viability, T/C [19] of 25.4%, a viability, T/C [20] of 29.3% and a viability, T/C [21] of 22.8%. The viability, T/C [22] was 15.7%, the viability, T/C [23] was 11% and the viability, T/C [24] was 5.17%. The viability, T/C [25] was 5.21%, the viability, T/C [26] was 5.61% and the viability, T/C [27] was 4.05%. The viability, T/C [28] was 4.64%, the viability, T/C [29] was 4.34% and the viability, T/C [30] was 3.5%. The viability, T/C [31] was 2.29%, the viability, T/C [32] was 3.17% and the viability, T/C [33] was 3.1%. For the same molecule, the viability, T/C [34] was 2.6%, the viability, T/C [35] was 3.16% and the viability, T/C [36] was 3.13%. The viability, T/C [37] was 1.93%, the viability, T/C [38] was 2.51% and the viability, T/C [39] was 2.25%. The viability, T/C [40] was 1.52%, the viability, T/C [41] was 2.21% and the viability, T/C [42] was 1.32%.

In the case of `CC(=O)O[C@H]1C(=O)[C@@]2(C)[C@H]([C@H](OC(=O)c3ccccc3)[C@]3(O)C[C@H](OC(=O)[C@H](O)[C@@H](NC(=O)c4ccccc4)c4ccccc4)C(C)=C1C3(C)C)[C@]1(OC(C)=O)CO[C@@H]1C[C@@H]2O`, the viability, T/C (compound 0.0316 µM) is reported as 52.5% and 76.2% and 43.1%, the viability, T/C (compound 0.1 µM) is reported as 16.1% (2×) and 36.9% and the viability, T/C (compound 0.316 µM) is reported as 11.9% and 21.4% and 7.97%. The viability, T/C (compound 1 µM) was 13.3% and 23.7% and 9.54%, the viability, T/C (compound 3.16 µM) was 12% and 23.8% and 9% and the viability, T/C (compound 10 µM) was 13.6% and 25.8% and 10.8%. The IC50 (curve of compound) was 34.2 nM and 68.2 nM and < 31.6 nM.

In the case of `CC(C)(O)C1CCC(Nc2ccc3ncc(-c4cccc(C(F)(F)F)c4)n3n2)CC1` (stereo not drawn), the viability, T/C (compound 0.0316 µM) is reported as 106% and 103% and 98.1%, the viability, T/C (compound 0.1 µM) is reported as 94% and 102% and 87.3% and the viability, T/C (compound 0.316 µM) is reported as 89% and 96.2% and 80.1%. The viability, T/C (compound 1 µM) was 36.2% and 39.3% and 10.5%, the viability, T/C (compound 3.16 µM) was 2.72% and 3.1% and 0.35% and the viability, T/C (compound 10 µM) was 2.99% and 3.23% and 0.57%. The IC50 (curve of compound) was 734 nM and 803 nM and 519 nM.

`O=c1[nH]cc(F)c(=O)[nH]1` + CN(C)c1ccc(Nc2c3ccc(NC(=O)CCN4CCCC4)cc3nc3cc(NC(=O)CCN4CCCC4)ccc23)cc1 showed an IC50 [1] of 7510 nM, an IC50 [2] of 9410 nM and an IC50 [3] of 8130 nM. The IC50 [4] was 7140 nM, the IC50 [5] was 7560 nM and the IC50 [6] was 9080 nM. The viability, T/C [7] was 104%, the viability, T/C [8] was 96.8% and the viability, T/C [9] was 97%. It also gave a viability, T/C [10] of 88.7%, a viability, T/C [11] of 60.6% and a viability, T/C [12] of 46.5%. For the same molecule, the viability, T/C [13] was 103%, the viability, T/C [14] was 105% and the viability, T/C [15] was 91.7%. The viability, T/C [16] was 86.4%, the viability, T/C [17] was 61.3% and the viability, T/C [18] was 50%. For the same molecule, the viability, T/C [19] was 102%, the viability, T/C [20] was 96.7% and the viability, T/C [21] was 100%. For the same molecule, the viability, T/C [22] was 83.7%, the viability, T/C [23] was 64.8% and the viability, T/C [24] was 46.7%. The viability, T/C [25] was 95.3%, the viability, T/C [26] was 91.8% and the viability, T/C [27] was 95.6%. It also gave a viability, T/C [28] of 77.7%, a viability, T/C [29] of 63.6% and a viability, T/C [30] of 44.6%. It also gave a viability, T/C [31] of 92.9%, a viability, T/C [32] of 80% and a viability, T/C [33] of 92.7%. For the same molecule, the viability, T/C [34] was 75.1%, the viability, T/C [35] was 61.7% and the viability, T/C [36] was 46.3%. For the same molecule, the viability, T/C [37] was 70.9%, the viability, T/C [38] was 78.9% and the viability, T/C [39] was 77.2%. It also gave a viability, T/C [40] of 74.4%, a viability, T/C [41] of 61.4% and a viability, T/C [42] of 49%.
